Laboratory results published in patent US20170056367A1, “PHARMACEUTICAL COMPOSITIONS FOR INHIBITING THE OSTEOCLAST DIFFERENTIATION COMPRISING EUPATILIN” (OsteoNeuroGen CO., LTD, priority 2015, published 2017).

Experiments:
[1] = tested on: mouse bone marrow cells (MBMC); assay: Cytotoxicity of eupatilin (FIG. 1D); format: cell-based; conditions: at the concentration (50 μM)
IkB, Akt, and GSK3b = assay: Phosphorylation of IkB, Akt and GSK3b during differentiation of MBMC into osteoclasts (gel electrophoresis); format: cell-based, mouse; conditions: compared to control groups, FIG. 3A
[2] = tested on: mouse bone marrow cells (MBMC); assay: Differentiation of mouse bone marrow cells (MBMC) into osteoclasts with M-CSF and RANKL; format: cell-based
Protocol: Incubation with M-CSF (macrophage-colony stimulating factor) and RANK (receptor activator of NFκB) ligand (RANKL) induced mouse bone marrow cells (MBMC) to differentiate into osteoclasts during which eupatilin was used at various concentrations under monitoring.

[3] = tested on: Osteoblasts differentiated from mesenchymal stem cells; assay: ALP activity of osteoblasts differentiated from mesenchymal stem cells; format: cell-based, mouse; conditions: FIG. 9
Protocol: Osteoblasts differentiated from mesenchymal stem cells were measured for ALP activity in the presence of eupatilin.

osteoclasts = assay: RANKL-mediated bone resorption measured using dentin; format: cell-based
Protocol: Effects of eupatilin on RANKL-mediated bone-resorption were measured using dentin.

[4] = tested on: Ovariectomized mice (OVX); assay: Ovariectomized mice (OVX) model of menopausal osteoporosis; format: in vivo, mouse; conditions: 50 μM eupatilin, FIG. 8
[5] = tested on: RANK-mediated NF-kB activation; assay: NF-kB-luciferase assay; format: cell-based; conditions: FIG. 3D
Protocol: Retroviral overexpression of catalytically active IKKb or Akt induced partial formation of TRP^+ osteoclasts (FIGS. 3B and 3C). An NF-kB-luciferase assay was conducted to examine whether the RANK-mediated NF-kB activation was modulated by eupatilin.

[6] = tested on: human peripheral blood mononucleated cells (PBMC); assay: Differentiation of human PBMC into osteoclasts; format: cell-based; conditions: 50 μM, FIG. 5
Text: Effects of eupatilin on the differentiation of human PBMC into osteoclasts were observed.

GSK3b = assay: Osteoclast formation upon overexpression of GSK3b; format: cell-based; conditions: FIGS. 4A and 4B
[7] = tested on: LPS-induced osteoporosis mouse models; assay: LPS-induced osteoporosis model; format: in vivo
[8] = tested on: TRAP, OSCAR, Integrin av, DC-STAMP, integrin b3, and OC-STAMP; assay: Osteoclast differentiation marker gene levels by real-time PCR; format: cell-based, mouse; conditions: 50 μM eupatilin, MBMC differentiation, FIG. 2
Protocol: During the differentiation of MBMC into osteoclasts in the presence of 50 μM eupatilin, the levels of osteoclast differentiation marker genes were measured by real-time PCR.

COc1ccc(-c2cc(=O)c3c(O)c(OC)c(O)cc3o2)cc1OC [eupatilin, 5,7-dihydroxy-3,4,6-trimethoxyflavone]
cytotoxicity [1]: no cytotoxicity | phosphorylation levels of IkB, Akt, and GSK3b (IkB, Akt, and GSK3b): significantly reduced | osteoclast differentiation ([2]; 50 μM eupatilin, M-CSF and RANKL, FIG. 1A): completely suppressed | F-actin formation in MNCs (immunofluorescence) ([2]; FIG. 1C): significantly reduced | formation of TRP^+ multinucleated osteoclasts (MNCs) ([2]; various concentrations, FIG. 1B): suppressed the formation of TRP^+ multinucleated osteoclasts (MNCs) in a dose-dependent manner | reduction of the activity of osteoblasts (ALP activity) ([3]; 50 μM): 50% | activity of osteoblasts (ALP activity) ([3]; up to 25 μM): did not influence | expression of Pit (osteoclasts; dentin, FIG. 6B): reduced | expression of F-actin for the formation of osteoclast actin rings (osteoclasts; osteoclasts differentiated by RANK signaling, FIG. 6A): remarkably suppressed | expression of Cathepsin K (osteoclasts; time-dependent manner, FIG. 6): significantly decreasing | bone density loss (CT) [4]: significantly reduced | RANK-mediated NF-kB activation [5]: inhibit | expression of c-Fos, NFATc1, p-Akt, p-GSK3b, and p-IkB [6]: significantly reduce | formation of TRP^+ osteoclasts [6]: significantly reduce | MNCs in the presence of eupatilin upon overexpression of GSK3b (GSK3b): a significant quantity of MNCs was observed | LPS-induced osteoporosis (bone density by CT) ([7]; 50 μM eupatilin, LPS intraperitoneally, FIG. 7A): significantly reduced | H&E and TRAP staining ([7]; LPS model, bottom panel of FIG. 7): promote osteanagenesis and inhibit osteoclast differentiation | bone density ([7]; LPS or LPS+ eupatilin, FIGS. 7B to 7E): improve bone density | levels of the markers TRAP, OSCAR, Integrin av, DC-STAMP, integrin b3, and OC-STAMP [8]: significantly reduced
